# Tests used:
# [1] = system: cytochrome P450 oxidase enzyme system; conditions: metabolized in the liver; cited from earlier work
# [2] = system: subjects with existing scars, incision after surgical removal; assay: Caffeine cream for scar reduction or prevention after surgical excision (Example 3); assay type: in vivo, human; conditions: topical cream; both subjects felt caffeine effects
# Excerpt: Two subjects with existing scars were chosen for the study.
# Subject #1 presented with a skin growth on the left mid cheek.
# Subject #2 presented with an older mid-forehead scar. […] The subject underwent a third revision of the scar.
# wound = assay: Wound healing with application of resveratrol; assay type: in vivo
# [3] = cited from earlier work
compound,measurement,setting,value
"Cn1c(=O)[nH]c2ncn(C)c2c1=O [Paraxanthine, 1,7-dimethyl-3H-purine-2,6-dione]",share of caffeine metabolites,[1],84%
"Cn1c(=O)c2c(ncn2C)n(C)c1=O [caffeine, 1,3,7-trimethylpurine-2,6-dione]",uptake from application site and distribution,[2],rapidly taken from the application site and distributed throughout the body
"Oc1ccc(/C=C/c2cc(O)cc(O)c2)cc1 [resveratrol, trans-3,4′,5-trihydroxystilbene]",resulting scar,wound,attenuated scar
same,time to epithelialization,wound,≤ 24 h
same,solubility in water,[3],very low solubility
"Cn1c(=O)c2[nH]cnc2n(C)c1=O [theophylline, 1,3-dimethyl-7H-purine-2,6-dione, reference compound]",share of caffeine metabolites,[1],4%

# From patent publication US20180214388A1, “COMPOSITION AND METHOD FOR REDUCING SCARRING” (priority 2015, published 2018)
